Measurements as given in US9273058B2 (BRISTOL-MYERS SQUIBB COMPANY, priority 2013, dated 2016).
Where two headings read alike, the source gives them in different places.

How the values were obtained:
CK1δ = CK1δ (Homo sapiens, UniProt P48730); assay: CK1δ kinase assay (Caliper LabChip electrophoretic separation of fluoresceinated peptide substrate and product); format: biochemical; conditions: 200 pM CK1δ, 50 μM ATP, 1.5 μM peptide, 22 hours at room temperature
Procedure, shortened: (§1)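 Each reaction was incubated 22 hours at room temperature and terminated with EDTA. Read-out was microfluidic electrophoretic separation of fluoresceinated substrate and phospho-product.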

CK1ε = CK1ε (Homo sapiens, UniProt P49674); assay: CK1ε kinase assay (Caliper LabChip electrophoretic separation of fluoresceinated peptide substrate and product); format: biochemical; conditions: 200 pM CK1ε, 50 μM ATP, 1.5 μM peptide, 22 hours at room temperature
Procedure, shortened: as §1

Sequence of CK1δ (P48730 whole entry): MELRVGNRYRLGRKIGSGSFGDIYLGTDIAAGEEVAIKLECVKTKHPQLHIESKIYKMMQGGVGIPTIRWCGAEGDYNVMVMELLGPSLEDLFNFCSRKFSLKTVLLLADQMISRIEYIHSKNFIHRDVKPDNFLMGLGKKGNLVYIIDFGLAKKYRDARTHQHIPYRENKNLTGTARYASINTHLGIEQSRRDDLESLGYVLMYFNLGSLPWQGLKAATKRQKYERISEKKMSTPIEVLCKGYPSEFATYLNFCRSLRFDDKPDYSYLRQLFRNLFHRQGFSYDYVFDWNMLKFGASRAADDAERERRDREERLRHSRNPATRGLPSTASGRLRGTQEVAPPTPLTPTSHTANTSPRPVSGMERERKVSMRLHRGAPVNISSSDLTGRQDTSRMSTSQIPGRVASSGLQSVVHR
Sequence of CK1ε (P49674 whole entry): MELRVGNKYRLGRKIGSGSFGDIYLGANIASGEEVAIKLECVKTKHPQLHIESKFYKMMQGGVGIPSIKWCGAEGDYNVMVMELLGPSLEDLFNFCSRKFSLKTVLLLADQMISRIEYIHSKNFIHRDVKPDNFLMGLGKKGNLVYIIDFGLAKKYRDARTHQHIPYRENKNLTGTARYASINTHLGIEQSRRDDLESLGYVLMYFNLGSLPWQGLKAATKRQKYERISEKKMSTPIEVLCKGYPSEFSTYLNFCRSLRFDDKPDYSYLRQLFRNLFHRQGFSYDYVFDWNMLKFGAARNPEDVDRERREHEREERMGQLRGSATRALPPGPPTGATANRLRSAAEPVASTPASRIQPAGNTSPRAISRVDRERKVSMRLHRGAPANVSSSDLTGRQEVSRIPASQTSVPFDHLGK

Row | SMILES | IC50 (CK1δ; read-out: CK1δ IC50 range) | IC50 (CK1ε; read-out: CK1ε IC50 range) | IC50 (CK1δ; read-out: CK1δ) | IC50 (CK1ε; read-out: CK1ε)
1 | CC1(C)C2CCC1(NC(=O)N1CCn3nc(-c4ccc(F)c(Cl)c4)c(C(N)=O)c3C1)CC2F (stereo not drawn) [Compound A67, 2-(3-Chloro-4-fluorophenyl)-N^5-(3-fluoro-7,7-dimethylbicyclo[2.2.1]heptan-1-yl)-6,7-dihydropyrazolo[1,5-a]pyrazine-3,5(4H)-dicarboxamide] | 0.01 to 10 nM | 0.01 to 10 nM |  | 
2 | CC1(C)CC(NC(=O)N2CCn3nc(-c4cccc(F)c4)c(C(N)=O)c3C2)CC(C)(C)N1 [Compound 18, 2-(3-Fluorophenyl)-N^5-(2,2,6,6-tetramethylpiperidin-4-yl)-6,7-dihydropyrazolo[1,5-a]pyrazine-3,5(4H)-dicarboxamide] | 10 to 100 nM | 100 to 2000 nM |  | 
3 | COc1ccc([C@H]2C[C@@H](NC(=O)N3CCn4nc(-c5ccc(F)c(Cl)c5)c(C(N)=O)c4C3)C2)cc1 [Compound 279, 2-(3-Chloro-4-fluorophenyl)-N^5-((1s,3s)-3-(4-methoxyphenyl)cyclobutyl)-6,7-dihydropyrazolo[1,5-a]pyrazine-3,5(4H)-dicarboxamide] | 0.01 to 10 nM | 0.01 to 10 nM |  | 
4 | CC1(NC(=O)N2CCn3nc(-c4cc(F)cc(Cl)c4)c(C(N)=O)c3C2)CC(F)(F)C1 [Compound 300, 2-(3-Chloro-5-fluorophenyl)-N^5-(3,3-difluoro-1-methylcyclobutyl)-6,7-dihydropyrazolo[1,5-a]pyrazine-3,5(4H)-dicarboxamide] | 0.01 to 10 nM | 0.01 to 10 nM |  | 
5 | CC(C)(C)NC(=O)N1CCn2nc(-c3ccccc3)c(C(N)=O)c2C1 [Compound 116, N^5-(tert-Butyl)-2-phenyl-6,7-dihydropyrazolo[1,5-a] pyrazine-3,5(4H)-dicarboxamide] | 10 to 100 nM | 10 to 100 nM | 18.2 nM | 79.8 nM
6 | NC(=O)c1c(-c2ccc(F)c(Cl)c2)nn2c1CN(C(=O)NC1CCCC1)CC2C(F)F (stereo not drawn) [Compound A12, 2-(3-Chloro-4-fluorophenyl)-N^5-cyclopentyl-7-(difluoromethyl)-6,7-dihydropyrazolo[1,5-a]pyrazine-3,5(4H)-dicarboxamide] | 10 to 100 nM | 0.01 to 10 nM |  | 
7 | CC(C)(NC(=O)N1CCn2nc(-c3ccc(Cl)c(Cl)c3)c(C(N)=O)c2C1)C1CCC(F)(F)CC1 [Compound 234, 2-(3,4-Dichlorophenyl)-N^5-(2-(4,4-difluorocyclohexyl)propan-2-yl)-6,7-dihydropyrazolo[1,5-a] pyrazine-3,5(4H)-dicarboxamide] | 0.01 to 10 nM | 0.01 to 10 nM |  | 
8 | CC(C)(C)NC(=O)N1CCn2nc(-c3cccc4ncccc34)c(C(N)=O)c2C1 [Compound 132, N^5-(tert-Butyl)-2-(quinolin-5-yl)-6,7-dihydropyrazolo[1,5-a]pyrazine-3,5(4H)-dicarboxamide] | 100 to 2000 nM | 100 to 2000 nM |  | 
9 | CC(C)(NC(=O)N1CCn2nc(-c3cccc(F)c3)c(C(N)=O)c2C1)C(F)(F)F [Compound 13, 2-(3-Fluorophenyl)-N^5-(1,1,1-trifluoro-2-methylpropan-2-yl)-6,7-dihydropyrazolo[1,5-a]pyrazine-3,5(4H)-dicarboxamide] | 0.01 to 10 nM | 10 to 100 nM |  | 
10 | N#CCC1(NC(=O)N2CCn3nc(-c4ccc(Cl)c(Cl)c4)c(C(N)=O)c3C2)CCC1 [Compound 222, N^5-(1-(Cyanomethyl)cyclobutyl)-2-(3,4-dichlorophenyl)-6,7-dihydropyrazolo[1,5-a] pyrazine-3,5(4H)-dicarboxamide] | 0.01 to 10 nM | 0.01 to 10 nM |  | 
11 | CC(C)(O)[C@@H]1CN(C(=O)NC2CC(F)(F)C2)Cc2c(C(N)=O)c(-c3ccc(F)c(Cl)c3)nn21 [Compound A19, (S)-2-(3-Chloro-4-fluorophenyl)-N^5-(3,3 - difluorocyclobutyl)-7-(2-hydroxypropan-2-yl)-6,7-dihydropyrazolo[1,5-a] pyrazine-3,5(4H)-dicarboxamide] | 10 to 100 nM | 10 to 100 nM |  | 
12 | CC1(NC(=O)N2CCn3nc(-c4cc(Cl)cc(Cl)c4)c(C(N)=O)c3C2)CC(F)(F)C1 [Compound 298, 2-(3,5-Dichlorophenyl)-N^5-(3,3-difluoro-1-methylcyclobutyl)-6,7-dihydropyrazolo[1,5-a] pyrazine-3,5(4H)-dicarboxamide] | 0.01 to 10 nM | 0.01 to 10 nM |  | 
13 | CC(C)(C)C1CN(C(=O)NC2CC(F)(F)C2)Cc2c(C(N)=O)c(-c3ccc(F)c(Cl)c3)nn21 (single isomer, unassigned) [Compound A122, 7-(tert-Butyl)-2-(3-chloro-4-fluorophenyl)-N5-(3,3-difluorocyclobutyl)-6,7-dihydropyrazolo[1,5-a]pyrazine-3,5(4H)-dicarboxamide] | 0.01 to 10 nM | 0.01 to 10 nM |  | 
14 | CC1Cn2nc(-c3ccc(F)c(Cl)c3)c(C(N)=O)c2CN1C(=O)NC1CC(F)(F)C1 (single isomer, unassigned) [Compound 343, 2-(3-Chloro-4-fluorophenyl)-N^5-(3,3-difluorocyclobutyl)-6-methyl-6,7-dihydropyrazolo[1,5-a]pyrazine-3,5(4H)-dicarboxamide] | 0.01 to 10 nM | 0.01 to 10 nM |  | 
15 | CC(C)(C)NC(=O)N1CCn2nc(-c3cccc(C#N)c3)c(C(N)=O)c2C1 [Compound 114, N^5-(tert-Butyl)-2-(3-cyanophenyl)-6,7-dihydropyrazolo[1,5-a] pyrazine-3,5(4H)-dicarboxamide] | 10 to 100 nM | 10 to 100 nM | 12.5 nM | 43 nM
16 | NC(=O)c1c(-c2cccc(F)c2)nn2c1CN(C(=O)NCCC(F)(F)F)CC2 [Compound 14, 2-(3-Fluorophenyl)-N^5-(3,3,3-trifluoropropyl)-6,7-dihydropyrazolo[1,5-a]pyrazine-3,5(4H)-dicarboxamide] | 10 to 100 nM | 10 to 100 nM |  | 
17 | CC(C)(C)NC(=O)N1CCn2nc(-c3ccc(S(C)(=O)=O)cc3)c(C(N)=O)c2C1 [Compound 144, N^5-(tert-Butyl)-2-(4-(methylsulfonyl)phenyl)-6,7-dihydropyrazolo[1,5-a] pyrazine-3,5(4H)-dicarboxamide] | 100 to 2000 nM | 100 to 2000 nM |  | 
18 | NC(=O)c1c(-c2cccc(Cl)c2)nn2c1CN(C(=O)Nc1ccc(OC(F)(F)F)cc1)CC2 [Compound 162, 2-(3-Chlorophenyl)-N^5-(4-(trifluoromethoxy)phenyl)-6,7-dihydropyrazolo[1,5-a]pyrazine-3,5(4H)-dicarboxamide] | 0.01 to 10 nM | 0.01 to 10 nM |  | 
19 | CC(C)(C)NC(=O)N1Cc2c(C(N)=O)c(-c3cccc(F)c3)nn2C2(CC2)C1 [Compound A131, N^5′-(tert-Butyl)-2′-(3-fluorophenyl)-4′H-spiro[cyclopropane-1,7′-pyrazolo[1,5-a]pyrazine]-3′,5′(6′H)-dicarboxamide] | 10 to 100 nM | 10 to 100 nM |  | 
20 | NC(=O)c1c(-c2ccc(Cl)c(Cl)c2)nn2c1CN(C(=O)N[C@H]1C[C@@H](c3ccc(F)cc3)C1)CC2 [Compound 278, 2-(3,4-Dichlorophenyl)-N^5-((1s,3s)-3-(4-fluorophenyl)cyclobutyl)-6,7-dihydropyrazolo[1,5-a] pyrazine-3,5(4H)-dicarboxamide] | 0.01 to 10 nM | 0.01 to 10 nM |  | 
21 | NC(=O)c1c(-c2cccc(Cl)c2)nn2c1CN(C(=O)N[C@H]1C[C@H](F)C1)CC2 [Compound 175, 2-(3-Chlorophenyl)-N^5-((1r,3r)-3-fluorocyclobutyl)-6,7-dihydropyrazolo[1,5-a] pyrazine-3,5(4H)-dicarboxamide] | 0.01 to 10 nM | 0.01 to 10 nM |  | 
22 | CC1(NC(=O)N2CCn3nc(-c4cccc(F)c4)c(C(N)=O)c3C2)CC1 [Compound 11, 2-(3-Fluorophenyl)-N^5-(1-methylcyclopropyl)-6,7-dihydropyrazolo[1,5-a]pyrazine-3,5(4H)-dicarboxamide] | 10 to 100 nM | 10 to 100 nM |  | 
23 | CS(=O)(=O)[C@H]1C[C@@H](NC(=O)N2CCn3nc(-c4ccc(Cl)c(Cl)c4)c(C(N)=O)c3C2)C1 [Compound 274, 2-(3,4-Dichlorophenyl)-N^5-((1s,3s)-3-(methylsulfonyl)cyclobutyl)-6,7-dihydropyrazolo[1,5-a] pyrazine-3,5(4H)-dicarboxamide] | 0.01 to 10 nM | 0.01 to 10 nM |  | 
24 | CC(C)(NC(=O)N1CCn2nc(-c3ccc(F)c(Cl)c3)c(C(N)=O)c2C1)C(=O)NC1CC1 [Compound 213, 2-(3-Chloro-4-fluorophenyl)-N^5-(1-(cyclopropylamino)-2-methyl-1-oxopropan-2-yl)-6,7-dihydropyrazolo[1,5-a]pyrazine-3,5(4H)-dicarboxamide] | 10 to 100 nM | 10 to 100 nM |  | 
25 | N#Cc1ccc([C@H]2C[C@@H](NC(=O)N3CCn4nc(-c5cccc(Cl)c5)c(C(N)=O)c4C3)C2)cc1 [Compound 284, 2-(3-Chlorophenyl)-N^5-((1s,3s)-3-(4-cyanophenyl)cyclobutyl)-6,7-dihydropyrazolo[1,5-a] pyrazine-3,5(4H)-dicarboxamide] | 0.01 to 10 nM | 0.01 to 10 nM |  | 
26 | CC1(CNC(=O)N2CCn3nc(-c4ccc(F)c(Cl)c4)c(C(N)=O)c3C2)CC(F)(F)C1 [Compound 229, 2-(3-Chloro-4-fluorophenyl)-N^5-((3,3-difluoro-1-methylcyclobutyl)methyl)-6,7-dihydropyrazolo[1,5-a]pyrazine-3,5(4H)-dicarboxamide] | 0.01 to 10 nM | 0.01 to 10 nM |  | 
27 | CC(C)(CC#N)NC(=O)N1CCn2nc(-c3ccc(F)c(Cl)c3)c(C(N)=O)c2C1 [Compound 186, 2-(3-Chloro-4-fluorophenyl)-N^5-(1-cyano-2-methylpropan-2-yl)-6,7-dihydropyrazolo [1,5-a]pyrazine-3,5(4H)-dicarboxamide] | 0.01 to 10 nM | 0.01 to 10 nM |  | 
28 | CC(C)(C)NC(=O)N1CCn2nc(-c3ccc(F)c(C(F)(F)F)c3)c(C(N)=O)c2C1 [Compound 139, N^5-(tert-Butyl)-2-(4-fluoro-3-(trifluoromethyl)phenyl)-6,7-dihydropyrazolo[1,5-a] pyrazine-3,5(4H)-dicarboxamide] | 10 to 100 nM | 100 to 2000 nM |  | 
